In patent US7423182B2, “Aminated polyamines” (University of Florida, priority 2004, dated 2008):
Read-outs that look alike come from different tables or passages of the source. Blank lines part the entries; values can stand above or below the compound they belong to.

How the values were obtained:
[1] = mice, three weeks after a seven day schedule; cited from earlier work
[2] = tested on: Polyamine pools in L1210 cells; conditions: 48 h of treatment, cited from earlier work
[3] = tested on: L1210 cells; assay: L1210 cell growth inhibition; type: cell-based; conditions: Mus musculus
[4] = tested on: Polyamine pools in L1210 cells; assay: Effect on polyamine pools in L1210 cells; type: cell-based; conditions: 48 h of treatment

Structure (SMILES): CCNCCCCNCCCCNCCCCNCC [DEHSPM, Diethylhomospermine]
drug administered remaining in the liver and kidney as drug or metabolites [1]: 35%
drug remaining in the animal in the form of HSPM [1]: 90%

Structure (SMILES): CCNCCCNCCCCNCCCNCC [DESPM]
PUT ([2]; 30 µM): 0% of untreated controls
SPD ([2]; 30 µM): 0% of untreated controls
SPM ([2]; 30 µM): 12% of untreated controls
PUT ([2]; 150 µM): 0% of untreated controls
SPD ([2]; 150 µM): 0% of untreated controls
SPM ([2]; 150 µM): 14% of untreated controls

IC50 ([3]; 48 h, read-out: IC50 48 h): 8 µM
IC50 ([3]; 96 h, read-out: IC50 96 h): 0.4 µM
Structure (SMILES): CCNCCCNCCC(N)CNCCCNCC (stereo not shown) [6-NH2-DESPM, 6 amino-N^1,N^12-diethylspermine]
PUT ([4]; 10 µM): 39 ± 9% of untreated controls
SPD ([4]; 10 µM): 16 ± 3% of untreated controls
SPM ([4]; 10 µM): 54 ± 11% of untreated controls
PUT ([4]; 50 µM): 26 ± 1% of untreated controls
SPD ([4]; 50 µM): 7 ± 0% of untreated controls
SPM ([4]; 50 µM): 32 ± 1% of untreated controls

Structure (SMILES): FC(F)(F)CNCCCNCCCCNCCCNCC(F)(F)F [FDESPM]
PUT ([2]; 100 µM): 100% of untreated controls
SPD ([2]; 100 µM): 103% of untreated controls
SPM ([2]; 100 µM): 108% of untreated controls
